Results reported in patent US10821100B2, “Triazolone compounds as mPGES-1 inhibitors” (Glenmark Pharmaceuticals S.A., priority 2012, dated 2020).

Molecular target: T1, Recombinant human mPGES-1 (Homo sapiens, UniProt O14684)
T1 construct: made in house; host or cells: CHO cells (crude microsomal fractions)
T1 sequence (O14684 1-152): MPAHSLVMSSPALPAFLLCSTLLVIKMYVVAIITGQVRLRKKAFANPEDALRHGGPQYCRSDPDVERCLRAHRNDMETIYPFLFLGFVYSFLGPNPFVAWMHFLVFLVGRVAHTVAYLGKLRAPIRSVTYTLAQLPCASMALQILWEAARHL
Experiment: In-vitro screening of mPGES-1 inhibitors (inhibition of PGE2 formation from PGH2, HTRF detection)
Assay type: biochemical
Conditions: mPGES-1 enzyme; for inhibition at 1 µM: 1 μM test compound, read-out: Percentage inhibition at 1 μM; for inhibition at 1 µM / inhibition at 10 µM: crude microsomal fractions; for inhibition at 10 µM: 10 μM test compound, read-out: Percentage inhibition at 10 μM; for IC50: class symbols
Source text: In-Vitro Protocol for Screening of mPGES-1 Inhibitors: mPGES-1 (Microsomal prostaglandin E synthase-1) is a microsomal enzyme that converts endoperoxide substrate PGH2 (prostaglandin H2) to product PGE2 (prostaglandin E2) by isomerization in the presence of reduced glutathione (GSH). mPGES-1 inhibitors were screened by assessing their ability to inhibit formation of PGE2 from PGH2 in the presence of mPGES-1 using an anti-PGE2 antibody based detection method. Recombinant human mPGES-1 was generated in-house by expression in CHO cells (Ouellet M et al. (2002), Protein Expression and Purification 26: 489-495). The assay was set up using crude microsomal fractions at a protein concentration of 40-60 μg/mL. Test compounds were prepared in 100% dimethyl sulfoxide (DMSO) to obtain 20 mM stock solution and then diluted using assay buffer comprising 0.1 M Potassium phosphate buffer with 2 mM EDTA. The final concentration of DMSO in the reaction was 0.5% (v/v). Negative controls were comprised of all assay reagents except the enzyme. Positive controls were comprised of the enzyme reaction in the absence of any inhibitor. Test compounds were incubated for 10 minutes in assay buffer containing 2.5 mM GSH and mPGES-1 enzyme followed by addition of PGH2 at a concentration of 15 μM for 1 minute. The reaction was stopped by addition of Stannous chloride (11 mg/ml) and PGE2 levels were measured ([…] et al. (2005), Journal of Biomolecular Screening 10(6) 599-605; Goedken R E et al. (2008), Journal of Biomolecular Screening 13 (7): 619-625) by HTRF kit (CisBio)). Inhibition of mPGES-1 enzyme activity was measured using the percent of reaction occurring in the positive control. Concentration response curves were plotted using percent inhibition of maximum enzyme reaction. The IC50 value was calculated from the concentration response curve by nonlinear regression analysis using GraphPad PRISM software.

SMILES	inhibition at 1 µM [%]	inhibition at 10 µM [%]	IC50 [nM]
CC(C)C(=O)NCc1ccc(Cl)c(-c2nn(-c3ccc(C(F)(F)F)c(F)c3)c(=O)[nH]2)c1 [Example-161, N-(4-Chloro-3-(1-(3-fluoro-4-(trifluoromethyl)phenyl)-4,5-dihydro-5-oxo-1H-1,2,4-triazol-3-yl)benzyl)isobutyramide]	98	99.4	< 50
CC(C)(C)C(=O)NCc1ccc(Cl)c(-n2nc(-c3ccc(COCC(F)(F)F)cc3)[nH]c2=O)c1 [Example-152, N-(3-(3-(4-((2,2,2-Trifluoroethoxy)methyl)phenyl)-4,5-dihydro-5-oxo-1,2,4-triazol-1-yl)-4-chlorobenzyl)pivalamide]	96	100	< 50
COc1cc(-c2nn(-c3c(Cl)cccc3Cl)c(=O)[nH]2)ccc1NC(=O)c1cc(F)cc(F)c1 [Example-177, N-(4-(1-(2,6-Dichlorophenyl)-4,5-dihydro-5-oxo-1H-1,2,4-triazol-3-yl)-2-methoxyphenyl)-3,5-difluorobenzamide]	29.9	71.1	
CC(C)(C)C#Cc1ccc(-c2nn(-c3cc(CNC(=O)C(C)(C)C)c(F)cc3Cl)c(=O)[nH]2)cc1 [Example-137, N-(4-Chloro-2-fluoro-5-(4,5-dihydro-3-(4-(3,3-dimethylbut-1-ynyl)phenyl)-5-oxo-1,2,4-triazol-1-yl)benzyl)pivalamide]	93.4	93.1	< 50
COc1cc(-n2nc(-c3c(Cl)cccc3Cl)[nH]c2=O)ccc1-c1nc2cc(C(F)(F)F)ccc2[nH]1 [Example-65, 3-(2,6-Dichlorophenyl)-1-(3-methoxy-4-(5-(trifluoromethyl)-1H-benzo[d]imidazol-2-yl)phenyl)-1H-1,2,4-triazol-5(4H)-one]	75.5	94.5	
Cc1ccc(NC(=O)c2ccc(-n3nc(-c4c(F)cccc4Cl)[nH]c3=O)cc2)c(F)c1 [Example-35, 4-(3-(2-Chloro-6-fluorophenyl)-5-oxo-4,5-dihydro-1H-1,2,4-triazol-1-yl)-N-(2-fluoro-4-methylphenyl)benzamide]	37.4	59.1	
COc1cc(-n2nc(-c3c(C)cccc3Cl)[nH]c2=O)ccc1C(=O)Nc1cccc(C(F)F)c1 [Example-54, 4-(3-(2-Chloro-6-methylphenyl)-5-oxo-4,5-dihydro-1H-1,2,4-triazol-1-yl)-N-(3-(difluoromethyl)phenyl)-2-methoxybenzamide]	89.4	97.5	50 to 100
Cc1ccc(-n2nc(-c3cc(CNC(=O)C(C)(C)C)c(F)cc3Cl)[nH]c2=O)cc1Cl [Example-135, N-(4-Chloro-5-(1-(3-chloro-4-methylphenyl)-4,5-dihydro-5-oxo-1H-1,2,4-triazol-3-yl)-2-fluorobenzyl)pivalamide]	92.3	98.9	< 50
CCn1c(-c2c(Cl)cccc2Cl)nn(-c2ccc(C(=O)Nc3cccc(C(F)(F)F)c3)c(OC)c2)c1=O [Example-70, 4-(3-(2,6-Dichlorophenyl)-4-ethyl-5-oxo-4,5-dihydro-1H-1,2,4-triazol-1-yl)-2-methoxy-N-(3-(trifluoromethyl)phenyl)benzamide]	0.55	6.63	
COc1cc(-n2nc(-c3c(Cl)cccc3Cl)[nH]c2=O)ccc1C(=O)Nc1ccc(F)c(C(F)(F)F)c1 [Example-43, 4-(3-(2,6-Dichlorophenyl)-5-oxo-4,5-dihydro-1H-1,2,4-triazol-1-yl)-N-(4-fluoro-3-(trifluoromethyl)phenyl)-2-methoxybenzamide]	98.6	99	< 50
